Literature values in Sander's compilation of Henry's law constants.

Test: Henry solubility constant Hcp at 298.15 K (mol/(m3 Pa))
Conditions: reference: Schüürmann (2000); cited value

Structure (SMILES)	Henry solubility constant Hcp
Clc1ccc(Cl)cc1 [1,4-dichlorobenzene]	0.0041
Cc1ccc(C)cc1 [1,4-dimethylbenzene]	0.0013
Cc1ccccc1O [1-hydroxy-2-methylbenzene]	8.3
Cc1ccc(O)cc1 [1-hydroxy-4-methylbenzene]	13
CC(=O)c1ccccc1 [1-phenylethanone]	0.93
O=Cc1ccccc1 [benzaldehyde]	0.37
c1ccccc1 [benzene]	0.0018
Sc1ccccc1 [benzenethiol]	0.03
Brc1ccccc1 [bromobenzene]	0.004
Clc1ccccc1 [chlorobenzene]	0.0027
COc1ccccc1 [methoxybenzene]	0.069
Cc1ccccc1 [methylbenzene]	0.0015
O=[N+]([O-])c1ccccc1 [nitrobenzene]	0.41
